According to ChEMBL document CHEMBL1770054, “Enediol mimics as inhibitors of the D-arabinose 5-phosphate isomerase (KdsD) from Francisella tularensis” (Bioorg Med Chem Lett, 2011):
Values joined by “and” are separate entries in the source; they are usually repeats but may differ in a detail not shown here. Equal values may be shown once.

How the values were obtained:
Trypanosoma brucei = assay: Antiparasitic activity against Trypanosoma brucei infected in rat L6 cells; assay type: functional
[1] = target: T1, Arabinose 5-phosphate isomerase KdsD (Francisella tularensis subsp. tularensis (strain SCHU S4 / Schu 4), UniProt Q5NGP7)
T1 sequence (Q5NGP7 whole entry): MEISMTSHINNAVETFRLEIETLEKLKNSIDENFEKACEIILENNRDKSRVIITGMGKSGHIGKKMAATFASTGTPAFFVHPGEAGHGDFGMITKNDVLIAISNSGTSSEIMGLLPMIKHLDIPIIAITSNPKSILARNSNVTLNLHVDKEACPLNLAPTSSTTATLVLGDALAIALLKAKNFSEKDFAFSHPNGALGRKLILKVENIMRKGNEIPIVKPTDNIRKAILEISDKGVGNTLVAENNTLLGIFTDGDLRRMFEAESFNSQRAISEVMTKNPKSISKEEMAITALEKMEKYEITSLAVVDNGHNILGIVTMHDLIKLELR

L6 = assay: Cytotoxicity against rat L6 cells; assay type: cell-based
[2] = target: T2, Ribose-5-phosphate isomerase B (Mycobacterium tuberculosis, UniProt P9WKD7); assay: Inhibition of Mycobacterium tuberculosis rpiB
T2 sequence (P9WKD7 whole entry): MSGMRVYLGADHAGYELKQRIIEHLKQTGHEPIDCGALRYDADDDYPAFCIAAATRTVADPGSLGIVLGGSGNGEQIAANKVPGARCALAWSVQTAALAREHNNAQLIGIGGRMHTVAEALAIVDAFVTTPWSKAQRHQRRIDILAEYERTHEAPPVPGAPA

[3] = Inhibition of Escherichia coli arabinose phosphate isomerase
[4] = Inhibition of xylose isomerase
[5] = target: Glucose-6-phosphate isomerase (Oryctolagus cuniculus, UniProt Q9N1E2); assay: Inhibition of rabbit cytosolic phosphoglucose isomerase
[6] = target: Triosephosphate isomerase (Homo sapiens, UniProt P60174); assay: Inhibition of Triosephosphate isomerase
Triosephosphate isomerase, sequence (P60174 whole entry): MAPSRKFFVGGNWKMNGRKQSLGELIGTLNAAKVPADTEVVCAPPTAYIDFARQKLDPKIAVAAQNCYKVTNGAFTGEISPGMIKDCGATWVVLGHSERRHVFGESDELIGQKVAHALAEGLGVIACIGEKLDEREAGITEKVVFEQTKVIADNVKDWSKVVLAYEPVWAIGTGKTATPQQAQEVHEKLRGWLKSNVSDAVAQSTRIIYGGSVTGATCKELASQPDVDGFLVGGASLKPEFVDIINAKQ

## CC(=O)O[C@H](COP(=O)(O)O)[C@@H](OC(C)=O)C(=O)NO
Trypanosoma brucei
  Activity: 229 µM
[1]
  IC50: 7 µM
L6
  Activity: 229 µM

## O=C(NO)[C@H](O)[C@H](O)COP(=O)(O)O
[2]
  Ki: 400 µM and 57 µM
[1]
  IC50: 35 µM

## O=C(O)[C@H](O)[C@H](O)COP(=O)(O)O
[3]
  IC50: 220 µM

## O=C(NO)[C@H](O)[C@H](O)CO
[4]
  Ki: 0.1 µM

## O=C(NO)[C@@H](O)[C@H](O)[C@H](O)COP(=O)(O)O
[5]
  Ki: 0.1 µM

## NC(=O)[C@H](O)[C@H](O)COP(=O)(O)O
[2]
  Ki: > 30000 µM
[1]
  IC50: 10 µM

## CC1(C)O[C@H](COP(=O)(O)O)[C@H](C(=O)NO)O1
[1]
  IC50: 3000 µM

## O=C(COP(=O)(O)O)NO [PHOSPHOGLYCOLOHYDROXAMATE]
[6]
  Ki: 4 µM
